Patent US9573926B2, “Amidoalkylenyl and amidoaryl esters, compositions thereof, and methods for their use” (Allergan, Inc., priority 2014, dated 2017)

Experiment: Aqueous stability of formulated compound (% remaining over time)
Format: physicochemical
Settings: 0.0005% w/v (5 ppm) in pH 6 buffer contain 1% PS80, n = 1

Row | SMILES | % Remaining (25° C., 14 days) [%] | % Remaining (25° C., 28 days) [%] | % Remaining (40° C., 14 days) [%] | % Remaining (40° C., 28 days) [%] | % Remaining (60° C., 14 days) [%] | % Remaining (60° C., 28 days) [%]
1 | CC(=O)NCCOC(=O)c1ccc(CCC[C@@H]2[C@@H](CCc3cc(Cl)cc(Cl)c3)[C@H](O)C[C@H]2Cl)s1 [Compound 2, 2-Acetamidoethyl 5-(3-((1R,2R,3R,5R)-5-chloro-2-(3,5-dichlorophenethyl)-3-hydroxycyclopentyl)propyl)thiophene-2-carboxylate] | 99.3 | 99.6 | 99.1 | 99.5 | 98.6 | 97.0
2 | CC(=O)NCCCOC(=O)c1ccc(CCC[C@@H]2[C@@H](CCc3cc(Cl)cc(Cl)c3)[C@H](O)C[C@H]2Cl)s1 [Compound 3, 3-Acetamidopropyl 5-(3-((1R,2R,3R,5R)-5-chloro-2-(3,5-dichlorophenethyl)-3-hydroxycyclopentyl)propyl)thiophene-2-carboxylate] | 99.2 | 103.5 | 99.8 | 100.5 | 99.4 | 98.6
